For data set [1], the system named is Rattus norvegicus. The data set can be described thus: In vivo inhibition of MSU-induced pyroptosis in Sprague-Dawley rat model of acute gout arthritis assessed as caspase+/PI+ macrophage cells in synovial tissue at 1 mg/kg, ia administered 1 hr before MSU challenge and measured upto 24 hrs by PI staining based flow cytometric analysis (reference value: 5.79 %). The data set is classed as functional. Also noted: scale not given: the % may be the effect or the level left.

The species named for data set [2] is Homo sapiens. The data set can be described thus: Selectivity index, ratio of IC50 for BRD2 BD2 (unknown origin) to IC50 for recombinant human N-terminal His-tagged BRD4 BD1 (44 to 170 residues) expressed in Escherichia coli by AlphaScreen assay. Background: Bead proximity is the source of the signal in Alpha formats.
Data set [3] deals with T1, Bromodomain-containing protein 4 (Homo sapiens, UniProt O60885). Put plainly: Inhibition of BRD4 BD1 in human THP1 cells assessed as Inhibition of MSU-induced IL-1beta secretion at 1 uM incubated for 1 hr followed by MSU treatment and measured after 12 hrs by ELISA. It counts as cell-based. Background: ELISA stands for enzyme-linked immunosorbent assay.
The subject of data set [4] is Rattus norvegicus. The data set can be described thus: In vivo inhibition of MSU-induced BRD4 expression in synovial tissue of Sprague-Dawley rat model of acute gout arthritis at 1 mg/kg, ia administered 1 hr before MSU challenge and measured upto 24 hrs by Western blot analysis. The data set is classed as functional, organism-based.
Data set [5] deals with Rattus norvegicus. Put plainly: In vivo inhibition of MSU-induced NLRP3 inflammasome in synovial tissue of Sprague-Dawley rat model of acute gout arthritis at 1 mg/kg, ia administered 1 hr before MSU challenge and measured upto 24 hrs by Western blot analysis. It counts as functional, organism-based. On the technique in general: A western blot detects proteins with antibodies after separation by electrophoresis.

Data set [6] relates to Rattus norvegicus. Put plainly: Anti-arthritic activity in Sprague-Dawley rat model of acute gout arthritis assessed as reduction in MSU-induced IL-1beta level in synovial tissue at 1 mg/kg, ia administered 1 hr before MSU challenge and measured upto 24 hrs by ELISA. The data set is classed as functional, organism-based.
Data set [7] addresses T1, Bromodomain-containing protein 4. The data set can be described thus: Inhibition of BRD4 BD1 in human THP1 cells assessed as inhibition of MSU-induced pyroptosis by measuring caspase-/PI- cells at 1 uM incubated for 1 hr followed by MSU treatment and measured after 12 hrs by PI/caspase 1 double staining based flow cytometric analysis (reference value: 76.2 %). The data set is classed as cell-based. More on the design: scale not given: the % may be the effect or the level left.

For data set [8], the system named is Rattus norvegicus. The data set can be described thus: In vivo inhibition of MSU-induced NLRP3 and ASC co-localization in synovial tissue of Sprague-Dawley rat model of acute gout arthritis at 1 mg/kg, ia administered 1 hr before MSU challenge and measured upto 24 hrs by immunofluorescence based confocal microscopy analysis. The data set is classed as functional, organism-based.

Data set [9] addresses T1, Bromodomain-containing protein 4. Put plainly: Inhibition of BRD4 BD1 in human THP1 cells assessed as inhibition of MSU-induced co-localization of NLRP3 and ASC at 1 uM incubated for 1 hr followed by MSU treatment and measured after 12 hrs by immunofluorescence based confocal microscopy analysis. It counts as cell-based.
The species named for data set [10] is Homo sapiens. Put plainly: Selectivity index, ratio of IC50 for BRD3 BD1 (unknown origin) to IC50 for recombinant human N-terminal His-tagged BRD4 BD1 (44 to 170 residues) expressed in Escherichia coli by AlphaScreen assay.
Data set [11] has as its target T1, Bromodomain-containing protein 4. Put plainly: Inhibition of BRD4 BD1 in human THP1 cells assessed as inhibition of MSU-induced NLRP3 inflammasome at 1 uM incubated for 1 hr followed by MSU treatment and measured after 12 hrs by Western blot analysis. The data set is classed as cell-based.
For data set [12], the species on record is Homo sapiens. Put plainly: Selectivity index, ratio of IC50 for BRD3 BD2 (unknown origin) […] (unknown origin) by AlphaScreen assay.
The target in data set [13] is T2, Peregrin (Homo sapiens, UniProt P55201).
T2 sequence (P55201 whole entry): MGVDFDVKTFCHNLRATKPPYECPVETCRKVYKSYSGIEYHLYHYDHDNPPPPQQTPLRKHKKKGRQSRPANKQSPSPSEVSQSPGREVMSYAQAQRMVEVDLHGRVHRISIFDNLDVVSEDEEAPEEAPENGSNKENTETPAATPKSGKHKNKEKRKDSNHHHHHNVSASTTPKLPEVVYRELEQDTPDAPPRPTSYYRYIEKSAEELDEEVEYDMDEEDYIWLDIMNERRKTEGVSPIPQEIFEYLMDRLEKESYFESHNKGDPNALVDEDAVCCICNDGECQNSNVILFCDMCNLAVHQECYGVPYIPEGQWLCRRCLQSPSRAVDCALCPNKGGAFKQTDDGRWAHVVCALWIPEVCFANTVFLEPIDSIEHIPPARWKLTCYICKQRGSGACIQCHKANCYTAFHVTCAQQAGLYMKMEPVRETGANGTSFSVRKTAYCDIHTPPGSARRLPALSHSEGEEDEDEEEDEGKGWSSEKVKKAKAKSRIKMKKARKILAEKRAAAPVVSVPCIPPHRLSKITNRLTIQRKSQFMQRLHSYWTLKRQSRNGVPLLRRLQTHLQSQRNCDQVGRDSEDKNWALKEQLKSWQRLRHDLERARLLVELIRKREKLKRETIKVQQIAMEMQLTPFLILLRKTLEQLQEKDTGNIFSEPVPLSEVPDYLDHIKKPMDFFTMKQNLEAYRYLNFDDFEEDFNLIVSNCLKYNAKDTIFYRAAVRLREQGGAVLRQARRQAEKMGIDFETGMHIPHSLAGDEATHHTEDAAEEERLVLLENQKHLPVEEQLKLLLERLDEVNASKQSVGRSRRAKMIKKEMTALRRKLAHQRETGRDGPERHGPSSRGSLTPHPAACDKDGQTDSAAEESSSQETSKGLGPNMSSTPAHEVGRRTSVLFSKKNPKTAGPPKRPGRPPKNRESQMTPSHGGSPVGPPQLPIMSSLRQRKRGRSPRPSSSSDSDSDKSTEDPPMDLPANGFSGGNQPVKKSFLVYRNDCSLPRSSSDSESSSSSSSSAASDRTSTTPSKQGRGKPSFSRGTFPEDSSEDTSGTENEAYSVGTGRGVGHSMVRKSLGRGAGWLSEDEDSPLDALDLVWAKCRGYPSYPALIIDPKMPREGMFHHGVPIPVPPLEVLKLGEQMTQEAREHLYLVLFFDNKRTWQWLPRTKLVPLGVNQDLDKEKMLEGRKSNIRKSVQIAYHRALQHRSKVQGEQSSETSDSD
The data set can be described thus: Displacement of tetra-acetylated histone H4 peptide (1-21) from BRPF1b (unknown origin) incubated for 30 mins followed by further incubation with tetra-acetylated histone H4 peptide (1-21) for 30 mins by Alphascreen assay.

Data set [14] can be described thus: Metabolic stability in dog liver microsomes assessed as half life measured upto 60 mins by LC/MS-MS analysis. It counts as ADME, Canis lupus familiaris, Microsome.
The target of data set [15] is T1, Bromodomain-containing protein 4. Put plainly: Inhibition of BRD4 BD1 in human THP1 cells assessed as inhibition of MSU-induced NF-kappaB P65 phosphorylation at 1 uM incubated for 1 hr followed by MSU treatment and measured after 12 hrs by Western blot analysis. The data set is classed as cell-based.
Data set [16] concerns Rattus norvegicus. The data set can be described thus: Anti-arthritic activity in Sprague-Dawley rat model of acute gout arthritis assessed as reduction in MSU-induced synovial hyperplasia at 1 mg/kg, ia administered 1 hr before MSU challenge and measured upto 24 hrs by hematoxylin and eosin staining based histopathological analysis. It counts as functional, organism-based.

The nature of data set [17]: Metabolic stability in monkey liver microsomes assessed as half life measured upto 60 mins by LC/MS-MS analysis. To be noted: rhesus monkey. The data set is classed as ADME, Macaca mulatta, Microsome.
Data set [18] has as its system RAW264.7. Put plainly: Inhibition of LPS-induced NO overproduction in mouse RAW264.7 cells at 1 uM incubated for 2 hrs followed by LPS stimulation and measured after 22 hrs by Griess reagent based assay relative to control. It counts as functional. As to conditions: Mus musculus, RAW264.7.

By inhibition is commonly meant the change of the read-out against control, counted positive when it falls. By IC50 is commonly meant the midpoint of a concentration-inhibition curve. The half-life is the time needed for the level to fall by half in the phase considered.

Active and inactive are the calls of the source.

As for `COc1ccccc1S(=O)(=O)Nc1ccc2c3c(cc(-n4cnc(C)c4)nc13)C(=O)N2C`, the Activity in data set [1] amounted to 1.03%; in data set [7], 86.6%. Further, the Ratio IC50 in data set [2] was 244; in data set [10] it was 2.8; in data set [12], 202. Moreover, the inhibition result in data set [3], in data set [4], in data set [5], in data set [6], in [8] and in [9] was “Active” each time. The inhibition entry in [11], in [15] and in data set [16] was “Active” each time. In addition, the IC50 in data set [13] stood at 568 nM. Further, the results for the half-life in data set [14] and in [17] were 10.4 min and 10.3 min, respectively. Besides, the inhibition at 1 µM in data set [18] is 102%.

(Values after ChEMBL document CHEMBL4354830, “Discovery of Benzo[cd]indol-2(1H)-ones and Pyrrolo[4,3,2-de]quinolin-2(1H)-ones as Bromodomain and Extra-Terminal Domain (BET) Inhibitors with Selectivity for the First Bromodomain with Potential High Efficiency against Acute Gouty Arthritis” (J Med Chem, 2019).)
